Values of other authors as cited in publication PMC9851200, “Multiparameter phenotypic screening for endogenous TFEB and TFE3 translocation identifies novel chemical series modulating lysosome function” (Autophagy, 2022).

Key:
Parameters in all cases: method as in original PKIS2 published data
[1] = target: kinases (KINOMEscan panel) (Homo sapiens, UniProt P11362); details: kinase FGFR1; Published KINOMEscan; ref original PKIS2 published data; cited from earlier work
[2] = target: kinases (KINOMEscan panel) (Homo sapiens, UniProt O75116); details: kinase ROCK2; Published KINOMEscan; ref original PKIS2 published data; cited from earlier work
kinases (KINOMEscan panel) (Homo sapiens, UniProt O75116), sequence (O75116 whole entry): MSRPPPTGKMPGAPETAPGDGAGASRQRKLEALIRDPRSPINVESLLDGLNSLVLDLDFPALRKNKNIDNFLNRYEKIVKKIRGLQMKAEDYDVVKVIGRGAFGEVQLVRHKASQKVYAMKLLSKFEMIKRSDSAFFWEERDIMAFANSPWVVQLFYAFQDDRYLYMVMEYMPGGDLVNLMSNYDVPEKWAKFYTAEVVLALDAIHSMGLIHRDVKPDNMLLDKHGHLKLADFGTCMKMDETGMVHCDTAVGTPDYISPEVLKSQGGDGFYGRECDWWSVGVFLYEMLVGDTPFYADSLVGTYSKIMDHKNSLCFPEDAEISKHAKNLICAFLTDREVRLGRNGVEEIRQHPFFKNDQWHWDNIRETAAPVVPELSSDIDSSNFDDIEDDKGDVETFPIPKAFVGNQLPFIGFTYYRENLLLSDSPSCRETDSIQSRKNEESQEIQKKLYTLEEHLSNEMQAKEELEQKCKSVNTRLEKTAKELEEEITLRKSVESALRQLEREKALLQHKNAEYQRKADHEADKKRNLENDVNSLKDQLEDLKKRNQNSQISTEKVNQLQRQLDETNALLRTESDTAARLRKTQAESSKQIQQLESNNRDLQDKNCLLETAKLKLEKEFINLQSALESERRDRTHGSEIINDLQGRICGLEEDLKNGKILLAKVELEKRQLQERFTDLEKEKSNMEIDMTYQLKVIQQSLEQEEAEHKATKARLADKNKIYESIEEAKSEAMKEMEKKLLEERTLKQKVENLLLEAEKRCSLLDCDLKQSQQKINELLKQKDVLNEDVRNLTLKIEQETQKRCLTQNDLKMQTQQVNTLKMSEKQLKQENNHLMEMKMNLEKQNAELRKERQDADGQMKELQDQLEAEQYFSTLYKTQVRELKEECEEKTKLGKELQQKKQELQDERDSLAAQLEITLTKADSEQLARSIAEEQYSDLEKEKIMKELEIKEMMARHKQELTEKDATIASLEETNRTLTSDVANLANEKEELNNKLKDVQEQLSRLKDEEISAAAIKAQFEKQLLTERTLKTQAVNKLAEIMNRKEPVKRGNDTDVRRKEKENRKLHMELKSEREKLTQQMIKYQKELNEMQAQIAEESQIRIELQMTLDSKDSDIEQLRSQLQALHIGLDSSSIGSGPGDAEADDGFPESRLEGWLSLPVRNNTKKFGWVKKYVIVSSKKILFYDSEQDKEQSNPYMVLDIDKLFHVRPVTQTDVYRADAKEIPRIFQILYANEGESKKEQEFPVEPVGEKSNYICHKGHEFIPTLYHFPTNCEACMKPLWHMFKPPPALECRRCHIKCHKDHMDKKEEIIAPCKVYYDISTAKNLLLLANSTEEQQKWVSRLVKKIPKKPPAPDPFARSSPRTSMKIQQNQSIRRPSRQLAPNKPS

[3] = target: kinases (KINOMEscan panel) (Homo sapiens, UniProt P49137); details: kinase MAPKAPK2; Published KINOMEscan; ref original PKIS2 published data; cited from earlier work
kinases (KINOMEscan panel) (Homo sapiens, UniProt P49137), sequence (P49137 whole entry): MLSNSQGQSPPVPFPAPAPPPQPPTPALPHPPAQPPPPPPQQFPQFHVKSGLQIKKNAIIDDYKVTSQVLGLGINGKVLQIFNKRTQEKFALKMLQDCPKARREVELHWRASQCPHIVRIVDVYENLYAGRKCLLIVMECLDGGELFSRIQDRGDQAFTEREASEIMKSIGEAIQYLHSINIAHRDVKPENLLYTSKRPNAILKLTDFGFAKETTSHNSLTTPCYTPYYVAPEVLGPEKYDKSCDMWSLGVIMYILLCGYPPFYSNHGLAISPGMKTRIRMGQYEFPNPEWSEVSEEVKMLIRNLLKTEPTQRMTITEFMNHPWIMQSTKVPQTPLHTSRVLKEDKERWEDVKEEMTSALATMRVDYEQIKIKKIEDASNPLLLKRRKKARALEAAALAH

[4] = target: T1, kinases (KINOMEscan panel) (Homo sapiens, UniProt Q9H2K8); details: kinase TAOK3; Published KINOMEscan; ref original PKIS2 published data; cited from earlier work
T1 sequence (Q9H2K8 1-898): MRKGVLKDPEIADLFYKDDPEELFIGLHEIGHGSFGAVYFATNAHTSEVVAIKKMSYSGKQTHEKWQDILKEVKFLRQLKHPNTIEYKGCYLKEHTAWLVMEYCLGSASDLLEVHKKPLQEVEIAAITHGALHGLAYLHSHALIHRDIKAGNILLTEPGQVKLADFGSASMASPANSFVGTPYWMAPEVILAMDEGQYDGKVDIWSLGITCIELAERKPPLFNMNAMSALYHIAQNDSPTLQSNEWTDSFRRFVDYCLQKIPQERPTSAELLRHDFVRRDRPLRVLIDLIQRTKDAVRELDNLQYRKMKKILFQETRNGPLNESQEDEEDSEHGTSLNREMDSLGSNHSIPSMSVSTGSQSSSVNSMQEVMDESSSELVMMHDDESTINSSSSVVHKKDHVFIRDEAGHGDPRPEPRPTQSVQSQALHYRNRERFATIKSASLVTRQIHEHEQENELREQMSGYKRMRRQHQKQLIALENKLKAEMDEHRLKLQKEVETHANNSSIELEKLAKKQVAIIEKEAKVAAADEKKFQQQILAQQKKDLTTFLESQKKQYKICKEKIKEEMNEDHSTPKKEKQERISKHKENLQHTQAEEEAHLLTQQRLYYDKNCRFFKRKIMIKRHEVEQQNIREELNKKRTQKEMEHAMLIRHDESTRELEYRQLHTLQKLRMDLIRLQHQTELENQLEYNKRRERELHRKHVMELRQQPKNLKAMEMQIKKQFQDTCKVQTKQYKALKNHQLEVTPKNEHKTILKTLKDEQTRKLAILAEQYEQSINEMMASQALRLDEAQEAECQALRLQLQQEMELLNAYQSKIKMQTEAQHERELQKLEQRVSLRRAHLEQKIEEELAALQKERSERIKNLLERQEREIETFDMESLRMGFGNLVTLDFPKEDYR

[5] = target: kinases (KINOMEscan panel) (Homo sapiens, UniProt P07333); details: Published KINOMEscan; ref original PKIS2 published data; cited from earlier work
kinases (KINOMEscan panel) (Homo sapiens, UniProt P07333), sequence (P07333 20-972): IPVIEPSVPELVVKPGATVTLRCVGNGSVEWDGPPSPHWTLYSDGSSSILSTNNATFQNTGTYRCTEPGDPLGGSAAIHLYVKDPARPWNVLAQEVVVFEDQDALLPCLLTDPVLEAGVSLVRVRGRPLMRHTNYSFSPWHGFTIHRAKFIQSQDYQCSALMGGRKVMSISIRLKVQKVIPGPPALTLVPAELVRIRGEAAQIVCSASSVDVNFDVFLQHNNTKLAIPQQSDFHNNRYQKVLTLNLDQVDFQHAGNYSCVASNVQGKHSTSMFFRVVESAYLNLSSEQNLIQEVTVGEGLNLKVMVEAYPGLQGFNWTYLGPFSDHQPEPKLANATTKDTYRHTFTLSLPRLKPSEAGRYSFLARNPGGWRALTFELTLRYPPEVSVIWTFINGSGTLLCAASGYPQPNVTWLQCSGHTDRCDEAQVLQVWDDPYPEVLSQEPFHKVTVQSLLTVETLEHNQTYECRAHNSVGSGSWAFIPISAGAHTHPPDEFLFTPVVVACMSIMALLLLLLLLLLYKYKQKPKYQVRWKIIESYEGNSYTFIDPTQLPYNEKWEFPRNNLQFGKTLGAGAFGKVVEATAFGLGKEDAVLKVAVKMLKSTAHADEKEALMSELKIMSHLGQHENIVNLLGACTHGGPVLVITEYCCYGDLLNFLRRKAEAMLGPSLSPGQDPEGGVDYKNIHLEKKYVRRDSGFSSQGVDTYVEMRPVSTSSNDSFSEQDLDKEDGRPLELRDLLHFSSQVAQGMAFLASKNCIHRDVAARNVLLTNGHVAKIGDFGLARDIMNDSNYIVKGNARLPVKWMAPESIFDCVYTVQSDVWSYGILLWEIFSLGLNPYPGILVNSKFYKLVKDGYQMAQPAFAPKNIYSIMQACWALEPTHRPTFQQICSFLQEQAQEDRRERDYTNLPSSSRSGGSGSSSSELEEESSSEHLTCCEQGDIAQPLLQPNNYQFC

[6] = target: T2, kinases (KINOMEscan panel) (Homo sapiens, UniProt Q96PY6); details: kinase NEK1; Published KINOMEscan; ref original PKIS2 published data; cited from earlier work
T2 sequence (Q96PY6 1-1258): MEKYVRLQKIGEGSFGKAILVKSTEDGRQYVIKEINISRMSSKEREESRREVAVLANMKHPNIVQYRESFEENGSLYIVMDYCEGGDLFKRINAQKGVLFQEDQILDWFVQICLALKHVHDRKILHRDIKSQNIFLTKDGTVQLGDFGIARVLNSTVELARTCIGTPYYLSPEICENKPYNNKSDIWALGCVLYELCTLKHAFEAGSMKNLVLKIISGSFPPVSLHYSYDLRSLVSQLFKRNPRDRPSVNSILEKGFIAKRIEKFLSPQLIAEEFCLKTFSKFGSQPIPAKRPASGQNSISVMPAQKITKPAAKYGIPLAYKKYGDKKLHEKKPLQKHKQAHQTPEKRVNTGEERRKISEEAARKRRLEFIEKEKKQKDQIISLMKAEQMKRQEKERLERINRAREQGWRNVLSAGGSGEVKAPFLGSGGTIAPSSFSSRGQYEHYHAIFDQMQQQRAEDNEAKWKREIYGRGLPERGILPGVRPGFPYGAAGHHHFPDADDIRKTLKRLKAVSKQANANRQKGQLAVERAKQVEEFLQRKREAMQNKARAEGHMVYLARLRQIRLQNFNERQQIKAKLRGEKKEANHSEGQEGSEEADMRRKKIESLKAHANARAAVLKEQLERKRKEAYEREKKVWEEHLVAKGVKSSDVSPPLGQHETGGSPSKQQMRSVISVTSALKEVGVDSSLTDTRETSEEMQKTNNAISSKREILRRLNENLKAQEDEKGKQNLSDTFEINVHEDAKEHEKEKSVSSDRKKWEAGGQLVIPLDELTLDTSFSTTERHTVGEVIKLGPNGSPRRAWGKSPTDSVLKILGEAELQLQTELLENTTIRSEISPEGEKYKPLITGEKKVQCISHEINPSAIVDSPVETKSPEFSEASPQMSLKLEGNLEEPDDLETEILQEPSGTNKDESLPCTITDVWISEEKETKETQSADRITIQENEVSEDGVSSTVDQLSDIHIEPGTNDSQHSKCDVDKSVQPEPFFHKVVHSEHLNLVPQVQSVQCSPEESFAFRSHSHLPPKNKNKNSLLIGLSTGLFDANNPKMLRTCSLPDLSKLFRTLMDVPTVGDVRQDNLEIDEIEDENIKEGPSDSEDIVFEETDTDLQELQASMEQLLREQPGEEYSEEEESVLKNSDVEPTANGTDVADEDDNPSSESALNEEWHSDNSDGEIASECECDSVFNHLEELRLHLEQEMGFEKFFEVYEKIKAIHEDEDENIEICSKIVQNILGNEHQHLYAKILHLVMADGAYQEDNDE

kinases (KINOMEscan panel) (Homo sapiens, UniProt P11362), sequence (P11362 22-822): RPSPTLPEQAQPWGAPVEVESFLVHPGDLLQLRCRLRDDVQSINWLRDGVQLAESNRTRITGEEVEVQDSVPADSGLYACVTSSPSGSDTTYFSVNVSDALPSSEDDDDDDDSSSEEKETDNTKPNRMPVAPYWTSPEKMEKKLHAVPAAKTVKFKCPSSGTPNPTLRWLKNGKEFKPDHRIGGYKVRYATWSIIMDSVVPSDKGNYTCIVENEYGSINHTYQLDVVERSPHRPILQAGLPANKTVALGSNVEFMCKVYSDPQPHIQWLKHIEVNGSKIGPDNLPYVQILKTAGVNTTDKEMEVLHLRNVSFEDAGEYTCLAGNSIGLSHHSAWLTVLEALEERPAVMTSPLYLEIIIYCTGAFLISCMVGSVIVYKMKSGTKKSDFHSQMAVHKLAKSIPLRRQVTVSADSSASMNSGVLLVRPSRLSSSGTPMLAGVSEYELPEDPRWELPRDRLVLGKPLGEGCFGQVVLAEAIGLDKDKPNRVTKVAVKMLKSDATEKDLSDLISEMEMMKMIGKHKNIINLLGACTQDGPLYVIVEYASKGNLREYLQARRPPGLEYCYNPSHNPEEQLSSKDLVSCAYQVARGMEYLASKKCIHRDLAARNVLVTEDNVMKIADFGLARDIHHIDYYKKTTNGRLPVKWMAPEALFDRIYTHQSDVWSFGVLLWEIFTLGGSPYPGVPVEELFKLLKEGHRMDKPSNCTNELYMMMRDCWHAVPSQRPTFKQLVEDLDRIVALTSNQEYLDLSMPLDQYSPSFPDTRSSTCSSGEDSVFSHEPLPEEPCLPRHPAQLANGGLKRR

Cc1cccc(-c2nc(Nc3ccncc3)c3ccccc3n2)n1 [NK215]
KINOMEscan FGFR1 [1]: 5 | KINOMEscan ROCK2 [2]: 0 | KINOMEscan MAPKAPK2 [3]: 0 | KINOMEscan TAOK3 [4]: 0 | KINOMEscan CSF1R [5]: 0 | KINOMEscan CSF1R-autoinhibited [5]: 0 | KINOMEscan NEK1 [6]: 0
